Test results reported in US20210113498A1, “TOPICAL AND TRANSDERMAL DELIVERY OF AN IRON CHELATOR TO PREVENT AND TREAT CHRONIC WOUNDS” (TAUTONA GROUP IP HOLDING COMPANY, L.L.C., priority 2018, published 2021).

What was measured:
[1] = systemic delivery (subcutaneous, intravenous, intramuscular) within approved dose limits; cited from earlier work
HbSS BERK mice = assay: Excisional wound healing in sickle cell mice; assay type: in vivo, mouse; conditions: 6 mm full-thickness excisional wounds, daily treatment, mean±s.e.m., in days
Source text: The proposed mechanism for healing was investigated using a sickle cell mouse study (Rodrigues et al. publication pending). In this study, transgenic sickle cell mouse model, HbSS-BERK, were used to determine the effectiveness of DIDP. […] They recapitulate human sickle cell disease including hemolysis, reticulocytosis, anemia, extensive organ damage, shortened life span and pain.
Mice. […] These mice simulate human sickle cell disease including hemolysis, reticulocytosis, anemia, extensive organ damage, shortened life span and pain26-28. HbSS-BERK mice were bred and phenotyped for human sickle hemoglobin. Genotyping for the knockout and hemoglobin transgenes was performed. Control mice (wild type) on a C57/Bl6 background [#000664] were also obtained.
DFO delivery device. A transdermal delivery system was used to deliver DFO into the dermal tissue of the mice. […]
Excisional wound healing. Five-month old male HbSS BERK and wild type mice were subjected to a quantitative and reproducible model of excisional wounding using an established protocol described in Galioano et al., Wound Repair Regen 12, 485-492, doi:10.1111/j.1067-1927.2004.12404.x (2004). […]
Wound treatment. […] Wound area was measured using Image J software (NIH). […]

[2] = assay type: in vitro ADME, human
Source text: To study the capacity of an intradermal patch comprising an iron chelator, such as DFO, to deliver DFO into human dermis, a vertical Franz Diffusion Cell (FIG. 8) was used to evaluate the DIDP. Full thickness human skin samples obtained under Stanford University IRB approval were mounted between the two compartments of the diffusion cell with the stratum corneum facing the donor compartment. The DIDP was applied and isotonic phosphate buffer solution agitated with a magnetic stirrer and maintained at 37° C. by a circulating water jacket. Every hour, over the course of 15 hours, skin samples were removed, washed with phosphate buffer saline (PBS) and dried with an absorbent towel. The skin samples were frozen at −20° C. and cut with a microtome into 20 μm sections. The samples were analyzed for drug content spectrophotometrically at 560 nm (Shimadzu, Japan) and the relative DFO concentration was determined. Skin biopsies of the fresh full thickness skin samples used in the Franz cell experiment after DIDP application were processed for histology. Intracellular DFO-iron aggregates were made visible using ferrocyanide staining via a modified Prussian blue reaction as described previously. Skin samples were incubated overnight in 7% potassium ferrocyanide dissolved in 3% hydrochloric acid. […]

Human skin permeation (stratum corneum / dermal accumulation) [2]: no permeation of the stratum corneum
Structure (SMILES): CC(=O)N(O)CCCCCNC(=O)CCC(=O)N(O)CCCCCNC(=O)CCC(=O)N(O)CCCCCN [DFO, deferoxamine]
Toxicity in adult or pediatric patients [1]: no evidence of toxicity
Time to complete wound closure (HbSS BERK mice): 14.5 ± 0.6268
